# Patent publication US20090286883A1, “TREATMENT OF HEART FAILURE AND ASSOCIATED CONDITIONS BY ADMINISTRATION OF MONOAMINE OXIDASE INHIBITORS” (Universita' degli Studi di Padova (University of Padua), priority 2008, published 2009)
# Several values for one entry are separate records, joined by “and”; a condition that tells them apart may be missing. Identical values can stand only once.
# Experiments:
# [1] = tested on: neonatal rat cardiomyocytes; test: MAO-A and BNP gene expression after NE in absence or presence of clorgyline; assay type: cell-based
# Excerpt: This process may contribute to the development of […]
# [2] = tested on: TAC-induced pressure overload; test: Transverse aortic constriction (TAC) pressure overload in mice, cardiac morphology and in vivo ventricular function; conditions: for EF (ejection fraction) / FS (fractional shortening) / Heart rate / IVS (interventricular septum) / LV mass/BW / LVEDD (left ventricular end-diastolic dimension) / LVESD (left ventricular end-systolic dimension) / LVPW (left ventricular posterior wall): clorgyline 1 mg/kg/day
# HL-1 cardiomyocytes = test: Oxidative stress (mitochondrial ROS production) upon H2O2 or arachidonic acid; assay type: cell-based; conditions: for Levels of oxidative stress, Arachidonic acid (% increase vs control): 5 μM arachidonic acid, no treatment 145.6 ± 3.8; for Levels of oxidative stress, Arachidonic acid (% increase vs control) / Levels of oxidative stress, H2O2 (% increase vs control): clorgyline 1 μM; for Levels of oxidative stress, H2O2 (% increase vs control): 100 μM H2O2, no treatment 156.2 ± 4.3; for rise in ROS production / protection: H2O2 or arachidonic acid stimulated HL-1 cardiomyocytes, cell pretreatment
# Experimental: In vivo, mitochondria and the respiratory chain, in particular, are considered a major intracellular ROS source^15. MAOs are located in the outer membrane of these organelles and MAO-A can increase oxidative burden. When HL-1 cardiomyocytes were incubated with 100 μM H2O2 or 5 μM arachidonic acid, a rise in ROS production at mitochondrial level was observed (Table 6).
# cardiomyocytes = test: NFAT4 gene expression upon stimulation with tyramine in absence or presence of clorgyline; assay type: cell-based
# caspase-3 = test: Cleaved caspase-3 levels after 6 weeks of TAC; assay type: in vivo; conditions: 6 weeks TAC mice, FIG. 1
# Excerpt: Levels of cleaved caspase-3 were markedly elevated after 6 weeks in TAC mice vs shams.
# myocytes = test: EMT gene expression upon stimulation with tyramine; assay type: cell-based; conditions: tyramine 10 μM
structure (smiles),measurement,setting,value
C#CCN(C)CCCOc1ccc(Cl)cc1Cl [clorgyline],BNP (vs GAPDH) gene expression,"[1]; NE 10 μM 24 hrs in presence of clorgyline, NE alone 8.9 ± 1.4",4.85 ± 0.9 ^#
same,EF (ejection fraction),[2]; TAC 3 weeks,91.6 ± 0.4^C %
same,FS (fractional shortening),[2]; TAC 3 weeks,56.8 ± 1.9^C %
same,Heart rate,[2]; TAC 3 weeks,702 ± 12 bpm
same,IVS (interventricular septum),[2]; TAC 3 weeks,1.3 ± 0.02^B mm
same,LV mass/BW,[2]; TAC 3 weeks,6.4 ± 0.3^B mg/g
same,LVEDD (left ventricular end-diastolic dimension),[2]; TAC 3 weeks,2.9 ± 0.06 mm
same,LVESD (left ventricular end-systolic dimension),[2]; TAC 3 weeks,1.2 ± 0.06 mm
same,LVPW (left ventricular posterior wall),[2]; TAC 3 weeks,1.2 ± 0.03^B mm
same,Heart rate,[2]; TAC 6 weeks,670 ± 13.7 bpm
same,IVS (interventricular septum),[2]; TAC 6 weeks,1.4 ± 0.03^B mm
same,LV mass/BW,[2]; TAC 6 weeks,"7.2 ± 0.4^B, D mg/g"
same,LVEDD (left ventricular end-diastolic dimension),[2]; TAC 6 weeks,3.0 ± 0.08^D mm
same,LVESD (left ventricular end-systolic dimension),[2]; TAC 6 weeks,1.2 ± 0.04^D mm
same,LVPW (left ventricular posterior wall),[2]; TAC 6 weeks,"1.3 ± 0.03^B, D mm"
same,EF (ejection fraction),"[2]; TAC 6 weeks, listed as CLO",93.6±0.4% and 94.3 ± 0.4^D %
same,FS (fractional shortening),"[2]; TAC 6 weeks, listed as CLO",61±0.8% and 61.6 ± 0.9^D %
same,"levels of hypertrophy (LV mass, LVEDD, LVESD)","[2]; TAC, vs saline-treated TAC mice",reduced
same,wall thickness,"[2]; after 3 weeks of TAC, compared to sham operated animals",increased
same,LV function,"[2]; after 3 weeks of TAC, vs saline-treated TAC mice",significantly better
same,LV function,"[2]; at 6 weeks of TAC, vs saline-treated TAC mice",improved
same,"Levels of oxidative stress, Arachidonic acid (% increase vs control)",HL-1 cardiomyocytes,98.3 ± 1.3 % increase vs control
same,"Levels of oxidative stress, H2O2 (% increase vs control)",HL-1 cardiomyocytes,122.6 ± 3 % increase vs control
same,rise in ROS production / protection,HL-1 cardiomyocytes,"completely prevented, or reduced"
same,NFAT4 gene expression (normalized to GAPDH),"cardiomyocytes; Control (no tyramine), +clorgyline",0.23 ± 0.02
same,NFAT4 gene expression (normalized to GAPDH),"cardiomyocytes; Tyramine, +clorgyline (preincubation)",0.32 ± 0.02
same,effect on tyramine-induced increase of NFAT4 expression,cardiomyocytes; preincubation with clorgyline prior to tyramine treatment,reduced this effect significantly
same,caspase-3 activation (cleaved caspase-3),caspase-3,prevented caspase-3 activation
NCCc1ccc(O)cc1 [tyramine],increase in EMT gene expression,myocytes,2 fold
same,EMT/GAPDH gene expression,myocytes; control 0.5 ± 0.04,0.97 ± 0.2
same,increase of NFAT4 expression,cardiomyocytes; tyramine incubation of cardiomyocytes,2 fold
same,NFAT4 gene expression (normalized to GAPDH),"cardiomyocytes; tyramine, −clorgyline, control 0.24 ± 0.03",0.38 ± 0.01
C#CCN(C)[C@H](C)Cc1ccccc1 [deprenyl],"Levels of oxidative stress, Arachidonic acid (% increase vs control)",HL-1 cardiomyocytes,142.4 ± 0.3 % increase vs control
same,"Levels of oxidative stress, H2O2 (% increase vs control)",HL-1 cardiomyocytes,150.7 ± 4.9 % increase vs control
same,rise in ROS production / protection,HL-1 cardiomyocytes,No protection
"NC[C@H](O)c1ccc(O)c(O)c1 [NE, norepinephrine]",MAO-A gene expression and hypertrophy (BNP expression),[1]; NE 10 μM for 24 hrs,up-regulation of MAO-A gene expression and induction of hypertrophy
same,MAO-A (vs GAPDH) gene expression,"[1]; NE 10 μM, 24 hrs, control 0.58 ± 0.05",1.85 ± 0.04
same,BNP (vs GAPDH) gene expression,"[1]; NE 10 μM, 24 hrs, control 1 ± 0",8.9 ± 1.4
